From patent US11000033B2, “Ketone or oxime compound, and herbicide” (NISSAN CHEMICAL CORPORATION, priority 2014, dated 2021)

Legend:
Type in all cases: in vivo
[1] = tested on: Alopecurus myosuroides; assay: Test Example 5: herbicidal effect by foliage application, plastic box (symbol J); conditions: 320 g/ha, 3 weeks after application
Procedure, shortened: (§1)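 Greenhouse foliar test: seedlings at 14 days, grown 25° C. to 30° C. in sterilized diluvial soil; compound applied as an aqueous dilution of an emulsion; response read 3 weeks after spraying.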

[2] = tested on: Setaria viridis; assay: Test Example 4: herbicidal effect by soil treatment (symbol G)
Procedure, shortened: (§2)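 Seeds were sown in sterilized diluvial soil, covered with about 1.5 cm of soil, and the soil surface was sprayed with a water-diluted emulsion of the compound at a predetermined rate. Plants grew in a greenhouse at 25° C. to 30° C.; effects were scored visually 3 weeks after application.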

[3] = tested on: Scirpus juncoides; assay: Test Example 1: herbicidal activity, application before weed generation in submerged conditions (symbol B); conditions: application herbicide amount 320 g/ha
Procedure, shortened: (§3)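 Mixed weed seeds sown in alluvial soil under 4 cm of water, with rice seedlings at the 2.5-leaf stage added. Same-day treatment: emulsion diluted to a set herbicide amount onto the water. Three weeks at 25–30 °C, then graded on a six-step scale.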

[4] = tested on: Echinochloa crus-galli var. crus-galli; assay: Test Example 5: herbicidal effect by foliage application, plastic box (symbol H); conditions: 320 g/ha, 3 weeks after application
Procedure, shortened: as §1

[5] = tested on: soybean; assay: Test Example 5: effect on crop by foliage application, plastic box (symbol d); conditions: 320 g/ha, 3 weeks after application
Procedure, shortened: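 Soil: sterilized diluvial. Container: plastic box, 21 × 13 cm, 7 cm deep. Sowing: spot-like, ~1.5 cm cover. Growth: greenhouse, 25° C. to 30° C.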

[6] = tested on: Echinochloa oryzacola Vasing.; assay: Test Example 1: herbicidal activity, application before weed generation in submerged conditions (symbol A); conditions: application herbicide amount 320 g/ha
Procedure, shortened: as §3

[7] = tested on: Alopecurus myosuroides; assay: Test Example 4: herbicidal effect by soil treatment (symbol J)
Procedure, shortened: as §2

[8] = tested on: Chenopodium album; assay: Test Example 4: herbicidal effect by soil treatment (symbol O)
Procedure, shortened: as §2

[9] = tested on: Monochoria vaginalis; assay: Test Example 1: herbicidal activity, application before weed generation in submerged conditions (symbol C); conditions: application herbicide amount 320 g/ha
Procedure, shortened: as §3

[10] = tested on: Scirpus juncoides; assay: Test Example 2: herbicidal activity, application during weed generation in submerged conditions (symbol B); conditions: Table 23; application herbicide amount 320 g/ha; grade 0-5 by criteria of Test Example 1
Procedure, shortened: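 Visual herbicidal ratings, taken three weeks after dosing, reflect post-emergence water-surface application to seedlings at one to two leaves. Conditions: co-sown weeds in alluvial soil flooded to 4 cm, greenhouse held at 25° C. to 30° C.; compound given as water-diluted emulsion at a fixed herbicide amount.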

[11] = tested on: beet; assay: Test Example 4: effect on crop by soil treatment (symbol f); conditions: for f: beet, effect on crop grade: application herbicide amount 320 g/ha
Procedure, shortened: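 Sterilized diluvial soil, spot sowing, ~1.5 cm soil cover; greenhouse 25–30° C.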

[12] = tested on: transplanted rice plant; assay: Test Example 1: effect on crop, application before weed generation in submerged conditions (symbol a); conditions: application herbicide amount 320 g/ha
Procedure, shortened: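 Rice at 2.5 leaf stage transplanted into submerged soil (4 cm depth) sown with three weed species; herbicide applied before weed emergence.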

[13] = application herbicide amount 320 g/ha

## COC(=O)C(C(C)=O)C1CC(O)=C(c2c(C)cc(C)cc2C)C1=O (stereo not drawn) [2-003]
[1]
  J: Alopecurus myosuroides, herbicidal effect grade: 5 (Herbicidal ratio of 90% or more (almost completely withered))
[2]; 320 g/ha
  G: Setaria viridis, herbicidal effect grade: 0 (Herbicidal ratio of 5% or lower (almost no effect))
[3]
  Herbicidal effect grade, B: Scirpus juncoides: 0 (Herbicidal ratio of 5% or lower (almost no effect))
[4]
  H: Echinochloa crus-galli var. crus-galli, herbicidal effect grade: 5 (Herbicidal ratio of 90% or more (almost completely withered))
[5]
  d: soybean, effect on crop grade: 0 (Herbicidal ratio of 5% or lower (almost no effect))
[6]
  Herbicidal effect grade, A: Echinochloa oryzacola Vasing.: 0 (Herbicidal ratio of 5% or lower (almost no effect))
[7]; 320 g/ha
  J: Alopecurus myosuroides, herbicidal effect grade: 4 (Herbicidal ratio of 70% or higher and lower than 90%)
[8]; 320 g/ha
  O: Chenopodium album, herbicidal effect grade: 0 (Herbicidal ratio of 5% or lower (almost no effect))
[9]
  Herbicidal effect grade, C: Monochoria vaginalis: 0 (Herbicidal ratio of 5% or lower (almost no effect))
[10]
  Herbicidal effect grade, B: Scirpus juncoides: 0 (Herbicidal ratio of 5% or lower (almost no effect))
[11]; 320 g/ha
  f: beet, effect grade on crop: 0 (Herbicidal ratio of 5% or lower (almost no effect))
[12]
  Effect grade on crop, a: transplanted rice plant: 0 (Herbicidal ratio of 5% or lower (almost no effect))

## CCC(=O)CC1CC(O)=C(c2c(C)cc(C)cc2C)C1=O (stereo not drawn) [2-006]
[1]
  J: Alopecurus myosuroides, herbicidal effect grade: 4 (Herbicidal ratio of 70% or higher and lower than 90%)
[2]; [13]
  G: Setaria viridis, herbicidal effect grade: 5 (Herbicidal ratio of 90% or more (almost completely withered))
[3]
  Herbicidal effect grade, B: Scirpus juncoides: 2 (Herbicidal ratio of 20% or higher and lower than 40%)
[4]
  H: Echinochloa crus-galli var. crus-galli, herbicidal effect grade: 4 (Herbicidal ratio of 70% or higher and lower than 90%)
[5]
  d: soybean, effect on crop grade: 0 (Herbicidal ratio of 5% or lower (almost no effect))
[6]
  Herbicidal effect grade, A: Echinochloa oryzacola Vasing.: 5 (Herbicidal ratio of 90% or more (almost completely withered))
[7]; [13]
  J: Alopecurus myosuroides, herbicidal effect grade: 5 (Herbicidal ratio of 90% or more (almost completely withered))
[8]; [13]
  O: Chenopodium album, herbicidal effect grade: 0 (Herbicidal ratio of 5% or lower (almost no effect))
[9]
  Herbicidal effect grade, C: Monochoria vaginalis: 3 (Herbicidal ratio of 40% or higher and lower than 70%)
[10]
  Herbicidal effect grade, B: Scirpus juncoides: 2 (Herbicidal ratio of 20% or higher and lower than 40%)
[11]
  f: beet, effect on crop grade: 0 (Herbicidal ratio of 5% or lower (almost no effect))
[12]
  Effect grade on crop, a: transplanted rice plant: 3 (Herbicidal ratio of 40% or higher and lower than 70%)

## COCC(=O)CC1CC(O)=C(c2c(C)cc(C)cc2C)C1=O (stereo not drawn) [2-007]
[1]
  J: Alopecurus myosuroides, herbicidal effect grade: 4 (Herbicidal ratio of 70% or higher and lower than 90%)
[2]; [13]
  G: Setaria viridis, herbicidal effect grade: 4 (Herbicidal ratio of 70% or higher and lower than 90%)
[3]
  Herbicidal effect grade, B: Scirpus juncoides: 2 (Herbicidal ratio of 20% or higher and lower than 40%)
[4]
  H: Echinochloa crus-galli var. crus-galli, herbicidal effect grade: 1 (Herbicidal ratio of 5% or higher and lower than 20%)
[5]
  d: soybean, effect on crop grade: 0 (Herbicidal ratio of 5% or lower (almost no effect))
[6]
  Herbicidal effect grade, A: Echinochloa oryzacola Vasing.: 3 (Herbicidal ratio of 40% or higher and lower than 70%)
[7]; [13]
  J: Alopecurus myosuroides, herbicidal effect grade: 3 (Herbicidal ratio of 40% or higher and lower than 70%)
[8]; [13]
  O: Chenopodium album, herbicidal effect grade: 0 (Herbicidal ratio of 5% or lower (almost no effect))
[9]
  Herbicidal effect grade, C: Monochoria vaginalis: 0 (Herbicidal ratio of 5% or lower (almost no effect))
[10]
  Herbicidal effect grade, B: Scirpus juncoides: 0 (Herbicidal ratio of 5% or lower (almost no effect))
[11]
  f: beet, effect on crop grade: 0 (Herbicidal ratio of 5% or lower (almost no effect))
[12]
  Effect grade on crop, a: transplanted rice plant: 4 (Herbicidal ratio of 70% or higher and lower than 90%)

## CCOC(=O)C(C(=O)c1ccccc1)C1CC(O)=C(c2c(C)cc(C)cc2C)C1=O (stereo not drawn) [2-008]
[1]
  J: Alopecurus myosuroides, herbicidal effect grade: 3 (Herbicidal ratio of 40% or higher and lower than 70%)
[2]; [13]
  G: Setaria viridis, herbicidal effect grade: 0 (Herbicidal ratio of 5% or lower (almost no effect))
[3]
  Herbicidal effect grade, B: Scirpus juncoides: 0 (Herbicidal ratio of 5% or lower (almost no effect))
[4]
  H: Echinochloa crus-galli var. crus-galli, herbicidal effect grade: 3 (Herbicidal ratio of 40% or higher and lower than 70%)
[5]
  d: soybean, effect on crop grade: 1 (Herbicidal ratio of 5% or higher and lower than 20%)
[6]
  Herbicidal effect grade, A: Echinochloa oryzacola Vasing.: 0 (Herbicidal ratio of 5% or lower (almost no effect))
[7]; [13]
  J: Alopecurus myosuroides, herbicidal effect grade: 0 (Herbicidal ratio of 5% or lower (almost no effect))
[8]; [13]
  O: Chenopodium album, herbicidal effect grade: 0 (Herbicidal ratio of 5% or lower (almost no effect))
[9]
  Herbicidal effect grade, C: Monochoria vaginalis: 0 (Herbicidal ratio of 5% or lower (almost no effect))
[10]
  Herbicidal effect grade, B: Scirpus juncoides: 0 (Herbicidal ratio of 5% or lower (almost no effect))
[11]
  f: beet, effect on crop grade: 0 (Herbicidal ratio of 5% or lower (almost no effect))
[12]
  Effect grade on crop, a: transplanted rice plant: 0 (Herbicidal ratio of 5% or lower (almost no effect))

## CCOC(=O)C(C(=O)C(C)C)C1CC(O)=C(c2c(C)cc(C)cc2C)C1=O (stereo not drawn) [2-009]
[1]
  J: Alopecurus myosuroides, herbicidal effect grade: 1 (Herbicidal ratio of 5% or higher and lower than 20%)
[2]; [13]
  G: Setaria viridis, herbicidal effect grade: 0 (Herbicidal ratio of 5% or lower (almost no effect))
[3]
  Herbicidal effect grade, B: Scirpus juncoides: 0 (Herbicidal ratio of 5% or lower (almost no effect))
[4]
  H: Echinochloa crus-galli var. crus-galli, herbicidal effect grade: 3 (Herbicidal ratio of 40% or higher and lower than 70%)
[5]
  d: soybean, effect on crop grade: 0 (Herbicidal ratio of 5% or lower (almost no effect))
[6]
  Herbicidal effect grade, A: Echinochloa oryzacola Vasing.: 0 (Herbicidal ratio of 5% or lower (almost no effect))
[7]; [13]
  J: Alopecurus myosuroides, herbicidal effect grade: 0 (Herbicidal ratio of 5% or lower (almost no effect))
[8]; [13]
  O: Chenopodium album, herbicidal effect grade: 0 (Herbicidal ratio of 5% or lower (almost no effect))
[9]
  Herbicidal effect grade, C: Monochoria vaginalis: 0 (Herbicidal ratio of 5% or lower (almost no effect))
[10]
  Herbicidal effect grade, B: Scirpus juncoides: 0 (Herbicidal ratio of 5% or lower (almost no effect))
[11]
  f: beet, effect on crop grade: 0 (Herbicidal ratio of 5% or lower (almost no effect))
[12]
  Effect grade on crop, a: transplanted rice plant: 0 (Herbicidal ratio of 5% or lower (almost no effect))

## CCOC(=O)C(C(=O)C(F)(F)F)C1CC(O)=C(c2c(C)cc(C)cc2C)C1=O (stereo not drawn) [2-010]
[1]
  J: Alopecurus myosuroides, herbicidal effect grade: 0 (Herbicidal ratio of 5% or lower (almost no effect))
[2]; [13]
  G: Setaria viridis, herbicidal effect grade: 0 (Herbicidal ratio of 5% or lower (almost no effect))
[3]
  Herbicidal effect grade, B: Scirpus juncoides: 0 (Herbicidal ratio of 5% or lower (almost no effect))
[4]
  H: Echinochloa crus-galli var. crus-galli, herbicidal effect grade: 0 (Herbicidal ratio of 5% or lower (almost no effect))
[5]
  d: soybean, effect on crop grade: 0 (Herbicidal ratio of 5% or lower (almost no effect))
[6]
  Herbicidal effect grade, A: Echinochloa oryzacola Vasing.: 0 (Herbicidal ratio of 5% or lower (almost no effect))
[7]; [13]
  J: Alopecurus myosuroides, herbicidal effect grade: 0 (Herbicidal ratio of 5% or lower (almost no effect))
[8]; [13]
  O: Chenopodium album, herbicidal effect grade: 0 (Herbicidal ratio of 5% or lower (almost no effect))
[9]
  Herbicidal effect grade, C: Monochoria vaginalis: 0 (Herbicidal ratio of 5% or lower (almost no effect))
[10]
  Herbicidal effect grade, B: Scirpus juncoides: 0 (Herbicidal ratio of 5% or lower (almost no effect))
[11]
  f: beet, effect on crop grade: 0 (Herbicidal ratio of 5% or lower (almost no effect))
[12]
  Effect grade on crop, a: transplanted rice plant: 0 (Herbicidal ratio of 5% or lower (almost no effect))

## CCOC(=O)C(C(=O)Cc1ccccc1)C1CC(O)=C(c2c(C)cc(C)cc2C)C1=O (stereo not drawn) [2-011]
[1]
  J: Alopecurus myosuroides, herbicidal effect grade: 1 (Herbicidal ratio of 5% or higher and lower than 20%)
[2]; [13]
  G: Setaria viridis, herbicidal effect grade: 0 (Herbicidal ratio of 5% or lower (almost no effect))
[3]
  Herbicidal effect grade, B: Scirpus juncoides: 0 (Herbicidal ratio of 5% or lower (almost no effect))
[4]
  H: Echinochloa crus-galli var. crus-galli, herbicidal effect grade: 2 (Herbicidal ratio of 20% or higher and lower than 40%)
[5]
  d: soybean, effect on crop grade: 0 (Herbicidal ratio of 5% or lower (almost no effect))
[6]
  Herbicidal effect grade, A: Echinochloa oryzacola Vasing.: 0 (Herbicidal ratio of 5% or lower (almost no effect))
[7]; [13]
  J: Alopecurus myosuroides, herbicidal effect grade: 0 (Herbicidal ratio of 5% or lower (almost no effect))
[8]; [13]
  O: Chenopodium album, herbicidal effect grade: 0 (Herbicidal ratio of 5% or lower (almost no effect))
[9]
  Herbicidal effect grade, C: Monochoria vaginalis: 0 (Herbicidal ratio of 5% or lower (almost no effect))
[10]
  Herbicidal effect grade, B: Scirpus juncoides: 0 (Herbicidal ratio of 5% or lower (almost no effect))
[11]
  f: beet, effect on crop grade: 0 (Herbicidal ratio of 5% or lower (almost no effect))
[12]
  Effect grade on crop, a: transplanted rice plant: 0 (Herbicidal ratio of 5% or lower (almost no effect))
